Experimental data as given in paper PMC3673835, “Synthesis and biological evaluation of 1, 3-dihydroxyxanthone mannich base derivatives as anticholinesterase agents” (Chemistry Central Journal, 2013).
Where two headings read alike, the source gives them in different places.

How the values were obtained:
[1] = molecular target: Electric-eel AChE (EC 3.1.1.7) (Electrophorus electricus, UniProt O42275); assay: biochemical; conditions: means ± standard deviation of triplicate independent experiments; substrate acetylthiocholine iodide; 37°C, pH 8.0
Sequence of Electric-eel AChE (EC 3.1.1.7) (O42275 24-633): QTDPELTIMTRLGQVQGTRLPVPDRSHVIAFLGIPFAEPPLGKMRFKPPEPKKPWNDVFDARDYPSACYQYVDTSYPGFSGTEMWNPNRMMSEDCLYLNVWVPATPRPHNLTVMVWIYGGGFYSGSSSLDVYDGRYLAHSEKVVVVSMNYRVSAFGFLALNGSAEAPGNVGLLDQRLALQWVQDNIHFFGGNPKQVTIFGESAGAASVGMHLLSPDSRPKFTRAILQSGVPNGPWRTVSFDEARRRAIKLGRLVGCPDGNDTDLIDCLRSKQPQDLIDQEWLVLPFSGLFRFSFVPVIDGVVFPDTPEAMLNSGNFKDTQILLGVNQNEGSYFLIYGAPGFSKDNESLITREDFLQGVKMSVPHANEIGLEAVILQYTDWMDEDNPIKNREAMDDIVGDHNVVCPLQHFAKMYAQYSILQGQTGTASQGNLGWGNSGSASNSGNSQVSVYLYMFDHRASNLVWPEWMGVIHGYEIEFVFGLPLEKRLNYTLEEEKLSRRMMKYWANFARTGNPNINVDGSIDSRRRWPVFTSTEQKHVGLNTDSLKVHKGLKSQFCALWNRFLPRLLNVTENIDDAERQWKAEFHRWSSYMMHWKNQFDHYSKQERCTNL

[2] = molecular target: horse-serum BuChE (EC3.1.1.8) (Equus caballus, UniProt P81908); assay: biochemical; assay type: biochemical; conditions: for Selectivity for BuChE/AChE: ratio IC50 BuChE / IC50 AChE; for IC50: substrate butyrylthiocholine, 37°C, pH 8.0
Sequence of horse-serum BuChE (EC3.1.1.8) (P81908 whole entry): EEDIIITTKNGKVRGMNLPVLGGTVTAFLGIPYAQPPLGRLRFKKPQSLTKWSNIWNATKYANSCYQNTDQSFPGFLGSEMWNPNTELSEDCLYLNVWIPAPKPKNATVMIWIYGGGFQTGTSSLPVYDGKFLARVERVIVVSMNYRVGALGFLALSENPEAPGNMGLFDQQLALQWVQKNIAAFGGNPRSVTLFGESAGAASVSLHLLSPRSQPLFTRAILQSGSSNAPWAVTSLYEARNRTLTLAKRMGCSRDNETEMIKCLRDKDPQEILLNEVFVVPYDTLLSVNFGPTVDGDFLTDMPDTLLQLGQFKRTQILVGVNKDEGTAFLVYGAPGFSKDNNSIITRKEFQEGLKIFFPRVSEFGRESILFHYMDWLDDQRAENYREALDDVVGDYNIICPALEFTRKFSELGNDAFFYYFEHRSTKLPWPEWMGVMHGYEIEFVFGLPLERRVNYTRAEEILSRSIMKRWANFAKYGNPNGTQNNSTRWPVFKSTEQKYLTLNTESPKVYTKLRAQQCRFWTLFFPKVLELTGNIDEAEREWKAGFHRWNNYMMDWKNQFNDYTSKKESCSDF

AChE = molecular target: T1, AChE (Electrophorus electricus, UniProt O42275); assay: Enzyme kinetic assay on AChE (Lineweaver-Burk plots); assay type: biochemical, Electric-eel; conditions: curves intersect at the secondary quadrant
T1 construct: purchased Sigma
T1 sequence (O42275 24-633): as the sequence (O42275 24-633) above

BuChE = BuChE (Equus caballus, UniProt P81908); assay type: biochemical; conditions: Lineweaver-Burk plots, curves intersect at the secondary quadrant
Sequence of BuChE (P81908 whole entry): as the sequence (P81908 whole entry) above

[3] = listed as 2-((diethylamino)methyl)-1-hydroxy-3-(3-methylbut-2-enyloxy)-9H-xanthen-9-one

Structure (SMILES)	IC50 [1] [µM]	Selectivity for BuChE/AChE [2]	IC50 [2] [µM]	Inhibition activity against BuChE at 100 μM [2]	Inhibition mode on AChE (AChE)	Inhibition mode on AChE (AChE; [3])	Inhibition mode on BuChE (BuChE)	Inhibition mode on BuChE (BuChE; [3])
CN(C)Cc1c(O)cc2oc3ccccc3c(=O)c2c1O [1a, 2-((dimethylamino)methyl)-1,3-dihydroxy-9H-xanthen-9-one]	107 ± 5.78	0.59	62.9 ± 0.84					
CCN(CC)Cc1c(O)cc2oc3ccccc3c(=O)c2c1O [1b, 2-((diethylamino)methyl)-1,3-dihydroxy-9H-xanthen-9-one]	73.7 ± 1.36	0.50	37 ± 0.56					
O=c1c2ccccc2oc2cc(O)c(CN3CCCC3)c(O)c12 [1c, 1,3-dihydroxy-2-(pyrrolidin-1-ylmethyl)-9H-xanthen-9-one]	81.9 ± 2.04	0.43	35.5 ± 1.68					
O=c1c2ccccc2oc2cc(O)c(CN3CCCCC3)c(O)c12 [1d, 1,3-dihydroxy-2-(piperidin-1-ylmethyl)-9H-xanthen-9-one]	79.3 ± 5.78	0.54	43 ± 1.76					
O=c1c2ccccc2oc2cc(O)c(CN3CCOCC3)c(O)c12 [1e, 1,3-dihydroxy-2-(morpholinomethyl)-9H-xanthen-9-one]	95.4 ± 1.7	>1.05	> 100	did not show any inhibition activity				
COc1cc2oc3ccccc3c(=O)c2c(O)c1CN(C)C [2a, 2-((dimethylamino)methyl)-1-hydroxy-3-methoxy-9H-xanthen-9-one]	2.34 ± 0.2	4.66	10.9 ± 0.2					
CCN(CC)Cc1c(OC)cc2oc3ccccc3c(=O)c2c1O [2b, 2-((diethylamino)methyl)-1-hydroxy-3-methoxy-9H-xanthen-9-one]	2.4 ± 0.49	2.83	6.79 ± 0.56					
COc1cc2oc3ccccc3c(=O)c2c(O)c1CN1CCCC1 [2c, 1-hydroxy-3-methoxy-2-(pyrrolidin-1-ylmethyl)-9H-xanthen-9-one]	4.2 ± 0.29	1.72	7.21 ± 0.75					
COc1cc2oc3ccccc3c(=O)c2c(O)c1CN1CCCCC1 [2d, 1-hydroxy-3-methoxy-2-(piperidin-1-ylmethyl)-9H-xanthen-9-one]	7 ± 0.07	1.53	10.6 ± 0.22					
COc1cc2oc3ccccc3c(=O)c2c(O)c1CN1CCOCC1 [2e, 1-hydroxy-3-methoxy-2-(morpholinomethyl)-9H-xanthen-9-one]	7.76 ± 2.36	>12.89	> 100	did not show any inhibition activity				
C=CCOc1cc2oc3ccccc3c(=O)c2c(O)c1CN(C)C [3a, 3-allyloxy-2-((dimethylamino)methyl)-1-hydroxy-9H-xanthen-9-one]	5.84 ± 1.19	0.80	4.66 ± 0.64					
C=CCOc1cc2oc3ccccc3c(=O)c2c(O)c1CN(CC)CC [3b, 3-allyloxy-2-((diethylamino)methyl)-1-hydroxy-9H-xanthen-9-one]	6 ± 0.33	0.26	1.54 ± 0.14					
C=CCOc1cc2oc3ccccc3c(=O)c2c(O)c1CN1CCCC1 [3c, 3-allyloxy-1-hydroxy-2-(pyrrolidin-1-ylmethyl)-9H-xanthen-9-one]	4.36 ± 0.58	0.70	3.05 ± 0.13					
C=CCOc1cc2oc3ccccc3c(=O)c2c(O)c1CN1CCCCC1 [3d, 3-allyloxy-1-hydroxy-2-(piperidin-1-ylmethyl)-9H-xanthen-9-one]	3.7 ± 0.16	0.47	1.73 ± 0.08					
C=CCOc1cc2oc3ccccc3c(=O)c2c(O)c1CN1CCOCC1 [3e, 3-allyloxy-1-hydroxy-2-(morpholinomethyl)-9H-xanthen-9-one]	74.7 ± 4.07	>1.34	> 100	did not show any inhibition activity				
CC(C)=CCOc1cc2oc3ccccc3c(=O)c2c(O)c1CN(C)C [4a, 2-((dimethylamino)methyl)-1-hydroxy-3-(3-methylbut-2-enyloxy)-9H-xanthen-9-one]	2.63 ± 0.07	0.57	1.49 ± 0.03					
CCN(CC)Cc1c(OCC=C(C)C)cc2oc3ccccc3c(=O)c2c1O [4b, 2-((diethylamino)methyl)-1-hydroxy-3-(3-methylbut-2-enyloxy)-9H-xanthen-9-one]	2.61 ± 0.13	0.20	0.51 ± 0.01		mixed-type inhibition	mixed-type manner	mixed-type inhibition	mixed-type manner
CC(C)=CCOc1cc2oc3ccccc3c(=O)c2c(O)c1CN1CCCC1 [4c, 1-hydroxy-3-(3-methylbut-2-enyloxy)-2-(pyrrolidin-1-ylmethyl)-9H-xanthen-9-one]	5.85 ± 0.32	0.49	2.89 ± 0.07					
CC(C)=CCOc1cc2oc3ccccc3c(=O)c2c(O)c1CN1CCCCC1 [4d, 1-hydroxy-3-(3-methylbut-2-enyloxy)-2-(piperidin-1-ylmethyl)-9H-xanthen-9-one]	55.3 ± 8.15	0.10	5.61 ± 0.08					
CC(C)=CCOc1cc2oc3ccccc3c(=O)c2c(O)c1CN1CCOCC1 [4e]	24.2 ± 0.4	0.37	8.83 ± 0.36					
